Data reported in patent US11684598B2, “Use of cannabinoids in the treatment of epilepsy” (priority 2015, dated 2023).
Like-named read-outs stand apart in the source and are kept apart here.

What was measured:
[1] = system: D. discoideum development; assay: D. discoideum development assay; format: cell-based, Dictyostelium discoideum
Procedure: Wild type (A×2) D. discoideum cells were grown in HL5 shaking culture for two days prior to development assay. Cells were washed in phosphate buffer (KK2; 20 mM Potassium phosphate buffer, pH 6.1), and 1×10^7 cells were spread onto nitrocellulose filters (Millipore, Cork). Absorbent pads (Millipore, Cork), divided into quarters, were placed in 2 ml culture dishes and soaked with 0.5 ml KK2 containing the cannabinoids at 20 μM. 1 mM Valproic acid was used as a positive control while KK2 containing 1% DMSO was used as a solvent only control. Nitrocellulose filters containing cells were quartered and place upon absorbent pads and maintained in a humid environment at 22° C. for 24 h. Fruiting body morphology was recorded using a dissection microscope and camera.

[2] = system: D. discoideum growth upon R. planticola bacterial plates; assay: Bacterial plate screen; format: cell-based, Dictyostelium discoideum; conditions: CBDA 12.3 μM, CBD 16.7 μM; 4 days
Procedure: Heat killed (75° C. for 30 minutes) R. planticola was spread onto the plates and ˜50 wild-type A×2 cells were added and left to grow at 22° C. Plates were checked regularly for colonies.

[3] = system: D. discoideum cell growth; assay: D. discoideum growth assay; format: cell-based, Dictyostelium discoideum
Procedure: Wild type (A×2) D. discoideum cells were grown in shaking culture (in HL5 medium) for two days prior to growth assays. Cells (9900 in 495 μl of media) were added to each well of a 24 well plate and 5 μl of cannabinoid in DMSO (or DMSO only) was added to each well to achieve each described concentration (1% final DMSO concentration), and cells were maintained at 22° C. Cells were counted at 72 hours, and then every 24 hours. Quadruplicate repeats were used for each concentration.

[4] = Toxicokinetics from toxicological studies in dogs, daily oral (gavage) administration; format: in vivo, dog; conditions: dog, plasma, po, 100 mg/kg, Day 1, mean; for AUC0-t: read-out: AUC0-t; for Cmax: read-out: Cmax
Procedure: Samples were taken from the jugular vein into lithium heparin. Samples were mixed gently by hand then continuously for at least 2 minutes on automatic mixer and placed in a Kryorack until centrifugation, which was carried out at approximately 4° C. as soon as practicable. The resultant plasma was separated under low light conditions, transferred to uniquely labelled clear glass vials, placed in light proof boxes and frozen immediately at <−50° C.

[5] = system: PTZ-induced generalised seizures; assay: Acute PTZ-induced model of generalised seizure; format: in vivo, rat
Procedure: Adult male Wistar Kyoto rats were used in the acute PTZ model of seizure (>P24, 70-110 g). Animals were housed five per cage in a heat regulated room (21° C.) on a 12:12 h day/night cycle (lights on 0800) in 50% humidity and given ad libitum access to standard laboratory chow (PCD Mod C, Special Diet Services, Wiltham, UK) and water. All procedures were undertaken during white light hours.
(§1) A PTZ (Sigma-Aldrich, Poole, UK) stock solution was made in 0.9% w/v NaCl for the experimental procedure.
PTZ antagonises GABA inhibition via binding to the t-butyl-bicycl-phosphorothionate site of GABAA receptors. Moreover, this chemically-induced model can be indicative of effects against absence seizures. PTZ (90 mg/kg) was used to induce seizures in adult male Wistar rats (n=15 per group) with experiment dose randomised using a Latin square design. Animals were placed in their 6 L Perspex tanks and allowed to acclimatise to their environment for 10 min, before receiving one of the cannabinoid doses (see Table 5) in vehicle, or volume-matched dose of vehicle alone to serve as a negative control. 60 min after test compound or vehicle administration, animals were injected with PTZ (90 mg/kg, i.p.) to induce seizures and animal behaviour was recorded for 30 min.
Videos of PTZ-induced seizures were scored offline with a standard seizure severity scale appropriate for generalised seizures (Table 6).
Videos of seizure behaviour generated from the custom built observational system were scored offline according to seizure scales appropriate for PTZ model (Table 6) using Observer Video-Pro software (Noldus, Wageningen, The Netherlands). For the PTZ model of seizure, intra- and inter-observer agreements of behaviour scoring were assessed using the reliability analysis function of the observer Video-Pro software: 1 s tolerance window; Cohen's Kappa coefficient≥0.95.
Specific markers of seizure behaviour and development were assessed and compared between vehicle control and drug groups. The latency (s) to seizure onset and the percentage of animals that developed tonic-clonic seizures was noted (see Table 6). In addition, the maximum seizure severity and the percentage mortality in each group were determined for the acute PTZ model of generalised seizure.
The effect of drug on latency to seizure onset and maximum seizure severity were assessed using Krustal-Wallis with post-hoc Mann-Whitney U-tests. Drug effects on the percentage of animals that developed tonic-clonic seizures and percentage mortality were assessed using Chi-squared with post-hoc Fisher exact tests. In all cases, P≤0.05 was considered significant.

[6] = Formulation analysis (decarboxylation of CBDA to CBD); format: physicochemical; conditions: 2:1:17 vehicle of ethanol, cremophor and saline
Source text: as §1
Formulation analysis was undertaken to determine whether CBDA decarboxylated to CBD because of temperature and/or the excipients in the formulation. […] Therefore, CBDA was not modified during formulation, and a 2:1:17 ratio can be used in future investigations for this phytocannabinoid.

[7] = female, comparative Table 11, females
[8] = male, comparative Table 10, males

Row | Compound | effect on development (fruiting body morphology) ([1]; 1 mM, positive control, 24 h) | cell survival (colony number) compared to control (solvent only) [2] | effect on development (fruiting body morphology) ([1]; 20 μM, 24 h on nitrocellulose filter) | IC50 ([3]; Dictyostelium discoideum, 168 h, read-out: growth inhibitory constant (IC50)) | concentration blocking growth ([3]; growth over one week) | concentration significantly inhibiting cell growth (P<0.05) ([3]; growth over one week) | AUC0-t [4, 7] | Cmax [4, 7] | AUC0-t [4, 8] | Cmax [4, 8] | effect on percentage mortality ([5]; 100 mg/kg CBD (P≤0.01), 100 mg/kg CBDA (P=0.0656), CBD/CBDA ratio (P=0.0656)) | effect on latency to seizure onset ([5]; 100 mg/kg CBD (P≤0.05), CBD/CBDA 9:1 (P≤0.05), CBDA 100 mg/kg (P=0.0929)) | median score for the maximum seizure severity ([5]; 100 mg/kg, PTZ 90 mg/kg i.p. 60 min after compound, scale of Table 6, n=15) | effect on incidence of tonic-clonic seizures ([5]; 100 mg/kg, P≤0.1) | effect on seizure severity vs vehicle control ([5]; CBDA 100 mg/kg, CBD/CBDA 9:1 ratio (90/10 mg/kg), P≤0.05) | conversion of CBDA to CBD during formulation [6]
1 | CCCC(CCC)C(=O)O [valproic acid] | able to aggregate but unable to undergo development to form fruiting bodies | – | – | – | – | – | – | – | – | – | – | – | – | – | – | –
2 | C=C(C)[C@@H]1CCC(C)=C[C@H]1c1c(O)cc(CCCCC)c(C(=O)O)c1O [CBDA, Cannabidiolic acid] | – | No difference in colony number | able to aggregate and develop to form mature fruiting bodies | 300 nM | 20 µM | 0.08 µM | 179 µg·h/mL | 38600 ng/mL | 80.5 µg·h/mL | 24900 ng/mL | trend towards a significant reduction | trend towards increasing the latency to seizure onset | 3 | trend towards a reduction in tonic-clonic seizures | significant anti-convulsant effects | not converted to CBD during formulation
